This assay addresses T1, HCV polymerase (Hepatitis C virus genotype 1b, UniProt P26663).
T1 construct: a region encoding NS5B (591 amino acids; J Virol 1991 Mar, 65(3), 1105-13) was amplified by PCR; 6 His (N); made in house; host or cells: Escherichia coli
Description: biochemical. The following applies: read-out: HCV polymerase inhibitory activity IC50.

Counter-ions that a name gives are not always drawn.

T1 sequence (P26663 2420-3010): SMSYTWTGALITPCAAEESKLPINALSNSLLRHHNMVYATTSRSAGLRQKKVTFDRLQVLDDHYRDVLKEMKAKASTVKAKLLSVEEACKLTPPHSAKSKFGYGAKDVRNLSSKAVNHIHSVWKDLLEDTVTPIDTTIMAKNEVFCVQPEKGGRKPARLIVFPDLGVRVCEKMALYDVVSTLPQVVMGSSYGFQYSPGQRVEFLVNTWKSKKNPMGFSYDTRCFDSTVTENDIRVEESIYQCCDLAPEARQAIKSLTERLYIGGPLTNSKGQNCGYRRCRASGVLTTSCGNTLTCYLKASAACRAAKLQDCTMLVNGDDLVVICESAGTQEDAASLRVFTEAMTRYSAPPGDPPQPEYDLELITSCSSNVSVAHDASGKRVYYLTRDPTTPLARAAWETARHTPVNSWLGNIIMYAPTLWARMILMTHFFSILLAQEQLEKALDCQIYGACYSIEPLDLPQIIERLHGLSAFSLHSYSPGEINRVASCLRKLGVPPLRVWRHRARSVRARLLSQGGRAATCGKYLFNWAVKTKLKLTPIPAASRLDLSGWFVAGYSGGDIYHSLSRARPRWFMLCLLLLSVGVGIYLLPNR

In the case of `CN(C)C(=O)c1cc(OCc2ccncc2)cc(Oc2ccc(-c3nc4cc(C(=O)O)ccc4n3C3CCCCC3)cc2)c1` [Example 259, 1-cyclohexyl-2-{4-[3-dimethylcarbamoyl-5-(4-pyridylmethoxy)-phenoxy]phenyl}benzimidazole-5-carboxylic acid dihydrochloride], the IC50 was 100 nM.
In the case of `CC(C)CCOc1cccc(Oc2ccc(-c3nc4cc(C(=O)O)ccc4n3C3CCCCC3)cc2)c1` [Example 115, 1-cyclohexyl-2-[4-(3-isopentyloxyphenoxy)phenyl]benzimidazole-5-carboxylic acid], the IC50 was determined as 170 nM.
Take `CC(C)(C)c1cc(COc2ccc(-c3nc4cc(C(=O)O)ccc4n3C3CCCCC3)cc2)cc(C(C)(C)C)c1` [Example 83, 1-cyclohexyl-2-[4-(3,5-di-tert-butylbenzyloxy)phenyl]-benzimidazole-5-carboxylic acid]: the IC50 was determined as 520 nM.
As for `O=C(O)CNC(=O)c1ccc(-c2ccc(Cl)cc2)c(COc2ccc(-c3nc4cc(C(=O)O)ccc4n3C3CCCCC3)c(F)c2)c1` [Example 292, 2-{4-[3-(carboxymethylcarbamoyl)-6-(4-chlorophenyl)benzyloxy]-2-fluorophenyl}-1-cyclohexylbenzimidazole-5-carboxylic acid], the IC50 was determined as 15 nM.
Take `O=C(O)c1ccc2c(c1)nc(-c1ccc(OCC(=O)c3ccccc3)cc1)n2C1CCCCC1` [Example 91, 2-(4-benzoylmethoxyphenyl)-1-cyclohexylbenzimidazole-5-carboxylic acid]: the IC50 came out at 530 nM.
As for `O=C(O)c1ccc2c(c1)nc(-c1ccc(OCc3cc(OCCCO)ccc3-c3ccc(Cl)cc3)cc1)n2C1CCCCC1` [Example 334, 2-{4-[2-(4-chlorophenyl)-5-(3-hydroxypropyloxy)benzyloxy]phenyl}-1-cyclohexylbenzimidazole-5-carboxylic acid], the IC50 turned out to be 16 nM.
Take `O=C(O)c1ccc2c(c1)nc(-c1ccc(OCc3nc(N4CCCC4=O)ccc3-c3ccc(Cl)cc3)cc1F)n2C1CCCCC1` [Example 457, 2-[4-{[3-(4-chlorophenyl)-6-(2-oxopyrrolidin-1-yl)pyridin-2-yl]methyloxy}-2-fluorophenyl]-1-cyclohexylbenzimidazole-5-carboxylic acid hydrochloride]: the IC50 came to 15 nM.
To `CCCOc1cccc(Oc2ccc(-c3nc4cc(C(=O)O)ccc4n3C3CCCCC3)cc2)c1` [Example 111, 1-cyclohexyl-2-[4-(3-propoxyphenoxy)phenyl]benzimidazole-5-carboxylic acid] belongs 140 nM; to `CC(C)=CCCOc1cccc(Oc2ccc(-c3nc4cc(C(=O)O)ccc4n3C3CCCCC3)cc2)c1` [Example 163, 1-cyclohexyl-2-{4-[3-(4-methyl-3-pentenyloxy)phenoxy]phenyl}-benzimidazole-5-carboxylic acid], 150 nM.
For the molecule `O=C(O)c1ccc2c(c1)nc(-c1ccc(OCc3ccc(C(=O)N4CCCCC4)cc3-c3ccc(Cl)cc3)cc1)n2C1CCCCC1` [Example 351, 2-{4-[2-(4-chlorophenyl)-4-(piperidinocarbonyl)benzyloxy]phenyl}-1-cyclohexylbenzimidazole-5-carboxylic acid hydrochloride], the IC50 was 19 nM.
In the case of `O=C(O)c1ccc2c(c1)nc(-c1ccc(OCc3cccc(Cl)c3)cc1)n2C1CCCC1` [Example 55, 2-[4-(3-chlorobenzyloxy)phenyl]-1-cyclopentylbenzimidazole-5-carboxylic acid], the IC50 is 360 nM.
With `O=C(O)c1ccc2c(c1)nc(-c1ccc(OCc3ccc(F)cc3C(=O)c3cccc(F)c3)cc1F)n2C1CCCCC1` [Example 256, 1-cyclohexyl-2-{2-fluoro-4-[4-fluoro-2-(3-fluorobenzoyl)benzyloxy]phenyl}benzimidazole-5-carboxylic acid], the IC50 turned out to be 79 nM.
For `O=C(O)c1ccc2c(c1)nc(-c1ccc(Oc3ccccc3O)cc1)n2C1CCCCC1` [Example 106, 1-cyclohexyl-2-[4-(2-hydroxyphenoxy)phenyl]benzimidazole-5-carboxylic acid], the IC50 came out at 400 nM.
As to `CN(C)c1ccc(-c2ccc(Cl)cc2)c(COc2ccc(-c3nc4cc(C(=O)O)ccc4n3C3CCCCC3)cc2)c1` [Example 282, 2-{4-[2-(4-chlorophenyl)-5-dimethylaminobenzyloxy]phenyl}-1-cyclohexylbenzimidazole-5-carboxylic acid], the IC50 worked out at 19 nM.
For `CC(C)NS(=O)(=O)c1ccc(-c2ccc(Cl)cc2)c(COc2ccc(-c3nc4cc(C(=O)O)ccc4n3C3CCCCC3)c(F)c2)c1` [Example 409, 2-{4-[2-(4-chlorophenyl)-5-(isopropylaminosulfonyl)benzyloxy]-2-fluorophenyl}-1-cyclohexylbenzimidazole-5-carboxylic acid hydrochloride], the IC50 was determined as 20 nM.
Regarding `CS(=O)(=O)Nc1ccc(-c2ccc(Cl)cc2)c(COc2ccc(-c3nc4cc(C(=O)O)ccc4n3C3CCCCC3)cc2)c1` [Example 283, 2-{4-[2-(4-chlorophenyl)-5-methanesulfonylaminobenzyloxy]phenyl}-1-cyclohexylbenzimidazole-5-carboxylic acid], the IC50 amounted to 14 nM.
For the molecule `O=C(O)c1ccc2c(c1)nc(-c1cc(OCc3ccccc3)no1)n2C1CCCCC1` [Example 99, 2-(3-benzyloxy-5-isoxazolyl)-1-cyclohexylbenzimidazole-5-carboxylic acid], the IC50 worked out at 530 nM.
As for `CC(=O)N(c1ccc(-c2ccc(Cl)cc2)c(COc2ccc(-c3nc4cc(C(=O)O)ccc4n3C3CCCCC3)c(F)c2)c1)C(C)C` [Example 469, 2-[4-{2-(4-chlorophenyl)-5-(N-acetyl-N-isopropylamino)-benzyloxy}-2-fluorophenyl]-1-cyclohexylbenzimidazole-5-carboxylic acid hydrochloride], the IC50 was determined as 24 nM.
As for `O=C(O)c1ccc2c(c1)nc(-c1ccc(OCc3cc(C(=O)N4CCC(O)CC4)ccc3-c3ccc(Cl)cc3)cc1F)n2C1CCCC1` [Example 411, 2-{4-[2-(4-chlorophenyl)-5-(4-hydroxypiperidin-1-ylcarbonyl)-benzyloxy]-2-fluorophenyl}-1-cyclopentylbenzimidazole-5-carboxylic acid hydrochloride], the IC50 is 15 nM.
On to `CN1CCN(C(=O)c2ccc(-c3ccc(Cl)cc3)c(COc3ccc(-c4nc5cc(C(=O)O)ccc5n4C4CCCCC4)cc3)c2)CC1` [Example 321, 2-{4-[2-(4-chlorophenyl)-5-(4-methylpiperazin-1-ylcarbonyl)benzyloxy]phenyl}-1-cyclohexylbenzimidazole-5-carboxylic acid dihydrochloride], for which the IC50 turned out to be 15 nM.
Regarding `O=C(O)c1ccc2c(c1)nc(-c1ccc(OCc3cccc([N+](=O)[O-])c3-c3ccc(Cl)cc3)cc1)n2C1CCCCC1` [Example 208, 1-cyclohexyl-2-{4-[2-(4-chlorophenyl)-3-nitrobenzyloxy]phenyl}-benzimidazole-5-carboxylic acid], the IC50 came to 39 nM.
`CN(Cc1ccccc1)C(=O)c1ccc(-c2ccc(Cl)cc2)c(COc2ccc(-c3nc4cc(C(=O)O)ccc4n3C3CCCCC3)cc2)c1` [Example 319, 2-{4-[2-(4-chlorophenyl)-5-(N-benzyl-N-methylcarbamoyl)-benzyloxy]phenyl}-1-cyclohexylbenzimidazole-5-carboxylic acid hydrochloride]: the IC50 came out at 30 nM.
Take `COc1ccccc1Oc1ccc(-c2nc3cc(C(=O)O)ccc3n2C2CCCCC2)cc1` [Example 108, 1-cyclohexyl-2-[4-(2-methoxyphenoxy)phenyl]benzimidazole-5-carboxylic acid]: the IC50 is 210 nM.
For `Cc1nc(COc2cccc(Oc3ccc(-c4nc5cc(C(=O)O)ccc5n4C4CCCCC4)cc3)c2)cs1` [Example 220, 1-cyclohexyl-2-{4-[3-{(2-methyl-4-thiazolyl)methoxy}phenoxy]-phenyl}benzimidazole-5-carboxylic acid], the IC50 stood at 73 nM.
The result for `O=C(O)c1ccc2c(c1)nc(-c1ccc(Oc3cccc(OCc4cccc(Cl)c4)c3)cc1)n2C1CCCCC1` [Example 200, 2-{4-[3-(3-chlorobenzyloxy)phenoxy]phenyl}-1-cyclohexylbenzimidazole-5-carboxylic acid] reads 100 nM; that for `O=C(O)c1ccc2c(c1)nc(-c1ccc(OCc3cc(C(=O)NCC(O)CO)ccc3-c3ccc(Cl)cc3)cc1F)n2C1CCCCC1` (stereo not drawn) [Example 383, 2-{4-[2-(4-chlorophenyl)-5-{(2,3-dihydroxypropyl)carbamoyl}-benzyloxy]-2-fluorophenyl}-1-cyclohexylbenzimidazole-5-carboxylic acid hydrochloride], 13 nM.
With `CN(C)C(=O)c1cc(COc2ccc(-c3nc4cc(C(=O)O)ccc4n3C3CCCCC3)c(F)c2)cc(-c2ccc(Cl)cc2)c1` [Example 372, 2-{4-[3-(4-chlorophenyl)-5-(dimethylcarbamoyl)benzyloxy]-2-fluorophenyl}-1-cyclohexylbenzimidazole-5-carboxylic acid hydrochloride], the IC50 is 33 nM.
As for `CN(C)C(=O)c1ccc(-c2ccc(Cl)cc2)c(COc2ccc(-c3nc4cc(C(=O)O)ccc4n3C3CCCC3)c(F)c2)c1` [Example 410, 2-{4-[2-(4-chlorophenyl)-5-(dimethylcarbamoyl)benzyloxy]-2-fluorophenyl}-1-cyclopentylbenzimidazole-5-carboxylic acid hydrochloride], the IC50 came out at 18 nM.
In the case of `COc1ccc(COc2ccc(-c3nc4cc(C(=O)O)ccc4n3C3CCCC3)cc2)cc1` [Example 48, 1-cyclopentyl-2-[4-(4-methoxybenzyloxy)phenyl]benzimidazole-5-carboxylic acid], the IC50 was 440 nM.
`O=C(O)c1ccc2c(c1)nc(-c1ccc(OCc3ccccc3-c3ccc(C(F)(F)F)cc3)cc1Cl)n2C1CCCCC1` [Example 186, 2-{2-chloro-4-[2-(4-trifluoromethylphenyl)benzyloxy]phenyl}-1-cyclohexylbenzimidazole-5-carboxylic acid]: the IC50 came to 370 nM.

By IC50 is commonly meant the point on the concentration scale where inhibition reaches its midpoint.

The record behind these values is patent publication US20040082635A1, “Fused cyclic compounds and medicinal use thereof” (priority 2001, published 2004).
